Test results as given in patent publication US11524977B2, “Ultrasound-assisted simulated digestion method of milk protein active peptide and application thereof in health foods” (JIANGSU UNIVERSITY, priority 2017, dated 2022).
Values joined by “and” are separate entries in the source; they are usually repeats but may differ in a detail not shown here. Equal entries are not always repeated.

What was measured:
[1] = literature report, in words; cited from earlier work
[2] = tested on: ICAM-1; conditions: synthesized peptide 100 μM
Procedure: (§1) The peptides were subjected to study the anti-inflammatory activity; the levels of intercellular adhesion molecule (ICAM-1) and vascular cell adhesion molecule (VCAM-1) expressed in EA.hy926 cells were detected by Western blot as inflammatory biomarkers. The EA, hy926 cells with passage number <12 were grown in 48-well plates. The cells reaching 80-90% confluence were treated with various concentrations (2.5 mg/mL of hydrolysates and digests, 0.2 mM and 3.0 mM of synthetic peptides) of the samples for 18 h. Then the cells were stimulated with TNF-α at 10 ng/mL and incubated for an additional 6 h in order to induce inflammation.
(§2) After the treatment period, the culture medium of the EA. hy926 cells was discarded and a boiling Laemmle buffer containing 0.2% TritonX-100 and 50 μM dithiothreitol was added to lysate the cells. The cell lysates were then run on 9% sodium dodecyl sulfate polyacrylamide gel electrophoresis. The gels were transferred onto nitrocellulose membranes, and immunoblotted with anti-ICAM-1/anti-VCAM-1 antibodies. The concentration of antibody to α-tubulin used was 0.4 μg/mL, while that for all other antibodies was 0.1 μg/mL. The protein bands were scanned using Licor Odyssey BioImager (Licor Biosciences, Lincoln, NB, USA) and quantified by densitometry using Image Studio Lite 5.2.

[3] = tested on: VCAM-1; conditions: synthesized peptide 100 μM
Procedure: as §1, §2

Substance: AASDISLLDAQSAPLR [peptide obtained by enzymolysis of β-LG]
- antibacterial activity [1]: strong antibacterial activity

Substance: Phe-Tyr-Gln-Ala [FYQA]
- ICAM-1 (%TNF-α) [2]: 56.6 %TNF-α and 56.6 ± 9.0 %TNF-α
- VCAM-1 (TNF-α) [3]: 41.3 TNF-α and 41.3 ± 10.6 TNF-α

Substance: IPAVFK: peptide obtained by enzymolysis of β-LG (UniProt P02754 94-99, looked up, fragment)
- antibacterial activity [1]: strong antibacterial activity

Substance: VLVLDTDYK [peptide obtained by enzymolysis of β-LG]
- antibacterial activity [1]: strong antibacterial activity

Substance: Leu-Gln-Tyr [LQY]
- ICAM-1 (%TNF-α) [2]: 48.2 %TNF-α and 48.2 ± 6.3 %TNF-α
- VCAM-1 (TNF-α) [3]: 33.7 TNF-α and 33.7 ± 6.9 TNF-α
